For six compounds, AUC(0-t), Papp A→B and Cmax results are on record in ChEMBL document CHEMBL3751828, “Discovery of imidazo[1,2-a]-pyridine inhibitors of pan-PI3 kinases that are efficacious in a mouse xenograft model” (Bioorg Med Chem Lett, 2016).

Data set [1] can be described thus: AUC (0 to last) in CD rat at […], po by LC-MS analysis. It counts as ADME, organism-based. Set-up: dose 2.5 mg/kg, route oral, time 0 - last. Particulars: in vivo.
Data set [2] can be described thus: Apparent permeability of the compound from apical to basolateral side in human Caco2 cells. It counts as ADME, cell-based. Conditions: Caco-2. A general note: Caco-2 monolayers are a common model of the intestinal barrier.
Data set [3] is described as follows: Cmax in CD rat at […], po by LC-MS analysis. It counts as ADME, organism-based. Details: dose 2.5 mg/kg, route oral. Conditions: in vivo.

Turning to `CC(=O)Nc1cn2cc(-c3cnc(N)c(OC(C)C(F)(F)F)n3)ccc2n1` (racemic), the AUC(0-t) (commonly the area under the concentration-time curve up to a stated or last time point) in data set [1] amounted to 49 µM·h. For the same compound, the Papp A→B (in general, how fast a substance crosses the layer from the apical side) in data set [2] was found to be 41 ×10⁻⁶ cm/s. In addition, in data set [3], the Cmax (in general, the highest concentration seen after dosing) is 3 µM.
On to `CC(=O)Nc1cn2cc(-c3cnc(N)c(OC(C)C)n3)ccc2n1`, for which, in data set [1], the AUC(0-t) turned out to be 13 µM·h. Moreover, the Cmax in data set [3] was 1.3 µM.
For `COc1nc(-c2ccc3nc(NC(C)=O)cn3c2)cnc1N`, in that order: 15 µM·h and 8.9 µM.
For `CCOc1nc(-c2ccc3nc(NC(C)=O)cn3c2)cnc1N`, in that order: 7 µM·h and 3.6 µM.
For `CC(=O)Nc1cn2cc(-c3cnc(N)c(OCC(F)(F)F)n3)ccc2n1`, in that order: 4 µM·h and 1.5 µM.
As to `COCCOc1nc(-c2ccc3nc(NC(C)=O)cn3c2)cnc1N`, in data set [1], the AUC(0-t) stood at 14 µM·h. For the same compound, the highest concentration (Cmax) in data set [3] worked out at 4 µM.
